The source of these data is ChEMBL document CHEMBL1806393, “Cytotoxic oxasqualenoids from the red alga Laurencia viridis” (Eur J Med Chem, 2011).

The nature of series [1]: Cytotoxicity against human CADO-ES1 cells assessed as inhibition of cell proliferation after 72 hrs by XTT assay. Conditions: CADO-ES1, 72 h. The series is classed as functional, cell-based.
Series [2] in a line: Inhibition of […] using p-nitrophenyl phosphate as substrate at <100 uM by UV/visible absorption spectroscopic analysis.
Series [3] concerns Jurkat. Nature of the series: Cytotoxicity against human Jurkat cells assessed as inhibition of cell proliferation after 72 hrs by XTT assay. It counts as functional, cell-based.
Series [4] deals with Jurkat. Nature of the series: Induction of apoptosis in human Jurkat cells assessed as DNA breakdown in sub-G1 phase at 20 uM after 24 to 72 hrs using propidium iodide staining by flow cytometry. The series is classed as functional, cell-based.
A short description of series [5]: Cytotoxicity against human MM144 cells assessed as inhibition of cell proliferation after 72 hrs by XTT assay. The series is classed as functional, cell-based.
A short description of series [6]: Solubility of the compound in water. The series is classed as physicochemical. Conditions: buffer.
The subject of the next series is HeLa. Kind of series: Cytotoxicity against human HeLa cells assessed as inhibition of cell proliferation after 72 hrs by XTT assay. The series is classed as functional, cell-based.
The subject of series [7] is Jurkat. Nature of the series: Cell cycle arrest in human Jurkat cells assessed as increase in apoptotic cells at sub-G1 phase at 20 uM after 72 hrs using propidium iodide staining by flow cytometry. It counts as functional, cell-based.

Active and inactive are the calls of the source. No cut-off for these calls is given here.

Regarding `C=C(CC[C@H](OS(=O)(=O)O)[C@@]1(C)CC[C@H](C(C)(C)O)O1)[C@H]1CC[C@H]2O[C@@H]([C@]3(C)CC[C@@H](Br)C(C)(C)O3)CC[C@]2(C)O1`, the IC50 in series [1] worked out at 27 µM; in the series on Jurkat [3], 12 µM; in series [5], 18 µM; with HeLa, 33 µM. For the same molecule, in series [2], the inhibition result was “inactive”. Moreover, the result with Jurkat [4] and in the series with Jurkat [7] was Active. Besides, in series [6], the solubility result is “Insoluble”.

`CC(C)(O)[C@H]1CC[C@](C)([C@@H](O)CCC(O)(CO)[C@H]2CC[C@H]3O[C@@H]([C@]4(C)CC[C@@H](Br)C(C)(C)O4)CC[C@]3(C)O2)O1` (stereo partly drawn): the IC50 in series [1] was determined as 18 µM; in the series on Jurkat [3], 4.6 µM; in series [5], 21 µM; with HeLa it was 24 µM. The inhibition result in series [2] is “inactive”. In addition, the solubility result in series [6] was “Insoluble”.

With `CC(C)(O)[C@H]1CC[C@](C)([C@@H](O)CC[C@@](O)(CO)C(=O)[C@H](O)C[C@H]2O[C@@H]([C@]3(C)CC[C@@H](Br)C(C)(C)O3)CC[C@]2(C)O)O1`, the IC50 in series [1] was found to be 3.1 µM; with Jurkat [3] it was 7.2 µM; in series [5], 15.5 µM; in the series on HeLa, 26 µM. The inhibition result in series [2] was “inactive”. For the same molecule, the solubility result in series [6] is recorded as “Insoluble”.

With `CC(C)(O)[C@H]1CC[C@](C)([C@H](CCC(O)(CO)[C@H]2CC[C@H]3O[C@@H]([C@]4(C)CC[C@@H](Br)C(C)(C)O4)CC[C@]3(C)O2)OS(=O)(=O)O)O1` (stereo partly drawn), the IC50 is 11 µM in series [1], 6.9 µM with Jurkat [3], 13.5 µM in series [5] and 27.5 µM in the series on HeLa. The inhibition entry in series [2] is “inactive”. Further, the solubility result in series [6] is “Insoluble”.

In the case of `CC(C)(O)[C@H]1CC[C@](C)([C@@H](O)CC[C@@H](CO)C2=CC[C@H]3O[C@@H]([C@]4(C)CC[C@@H](Br)C(C)(C)O4)CC[C@]3(C)O2)O1`, the IC50 in series [1] turned out to be 16.5 µM; in the series with Jurkat [3], 7.55 µM; in series [5], 7.3 µM; in the series with HeLa, 23 µM. Also, the inhibition result in series [2] was “inactive”. Also, the solubility result in series [6] is recorded as “Insoluble”.

As to `CC(C)(O)[C@H]1CC[C@](C)([C@H](CCC(O)(COS(=O)(=O)O)[C@H]2CC[C@H]3O[C@@H]([C@]4(C)CC[C@@H](Br)C(C)(C)O4)CC[C@]3(C)O2)OS(=O)(=O)O)O1` (stereo partly drawn), the IC50 in series [1] came out at 17 µM; with Jurkat [3] it was 8.6 µM; in series [5] it was 31.5 µM; with HeLa, 35.5 µM. Also, in series [2], the inhibition result was “inactive”. In addition, the solubility entry in series [6] was “Insoluble”.

With `C=C(CC[C@H](O)[C@@]1(C)CC[C@H](C(C)(C)O)O1)[C@H]1CC[C@H]2O[C@@H]([C@]3(C)CC[C@@H](Br)C(C)(C)O3)CC[C@]2(C)O1` [DEHYDROTHYRSIFEROL], the IC50 in series [1] came to 12 µM; in the series on Jurkat [3], 13.5 µM; in series [5], 21.5 µM; in the series with HeLa, 34.5 µM. Moreover, the inhibition entry in series [2] is “inactive”. In addition, the outcome in the series on Jurkat [4] and in the series on Jurkat [7] was Active. Moreover, in series [6], the solubility result was “Insoluble”.

Turning to `CC(C)(O)[C@H]1CC[C@](C)([C@@H](O)CC[C@@](O)(CO)C(=O)CC[C@H]2O[C@@H]([C@]3(C)CC[C@@H](Br)C(C)(C)O3)CC[C@]2(C)O)O1` [PRETHYRSENOL A], the IC50 in series [1] stood at 14.5 µM; in the series on Jurkat [3], 8.15 µM; in series [5], 10.2 µM; in the series on HeLa it was 29 µM. In addition, the inhibition entry in series [2] is “inactive”. Moreover, the solubility entry in series [6] is on record as “Insoluble”.

As to `CC(C)(O)[C@H]1CC[C@](C)([C@@H](O)CC[C@@](O)(CO)C2=CC[C@H]3O[C@@H]([C@]4(C)CC[C@@H](Br)C(C)(C)O4)CC[C@]3(C)O2)O1`, in series [2], the inhibition result is “inactive”.
